These compounds were tested on urease (assay: Screening of urease inhibition (colorimetric Phenol Red assay, 96 well plates)). Settings: Table 2; fraction vs negative control; additive 0.1 w/w, urea 0.2% w/w, urease 0.5 U/ml, 1 h.
Assay type: biochemical
Procedure: Urease catalyzed ammonia formation leads to a change in pH (alkalization). […] The enzymatic screening assay is described below. The colorimetric assay is conducted in 96 well plates in combination with a microplate spectrophotometer with Phenol Red as pH sensitive indicator.
In brief: the substrate urea, the fragrance raw material and the urease are mixed in the wells and the change in absorption at 560 nm is monitored for 1 h. The resulting absorbance curves are compared to untreated samples (negative controls, without inhibitors) and samples with commercially available NBPT inhibitor (positive control).
Work on `CCCCNP(N)(N)=S` [NBPT, reference compound] yielded an Inhibition of 1.00.

Same assay, conditions: additive 0.1 w/w, urea 0.2% w/w, urease 0.5 U/ml, PBS pH 7.4, monitored 1 h
In the case of `CCCCNP(N)(N)=S` [NBPT, reference compound], the “Δ Absorbance at 1 h (560 nm)” value is reported as 0.00.

Same assay, conditions: positive hits table; fraction vs negative control; additive 0.1 w/w, urea 0.2% w/w, urease 0.5 U/ml, 1 h
With `CCOc1cc(C)ccc1O` [2-ethoxy-4-methylphenol] the Inhibition was 0.786.
Work on `OC/C=C/c1ccccc1` [CINNAMIC ALCOHOL, (2E)-3-phenylprop-2-en-1-ol] yielded an Inhibition of 0.931.
For `C/C=C/C(=O)C1C(C)=CCCC1(C)C` (stereo not drawn) [DAMASCONE ALPHA, (E)-1-(2,6,6-trimethyl-1-cyclohex-2-enyl)but-2-en-1-one], the Inhibition was 0.991.
`C/C=C/C(=O)C1=C(C)C=CCC1(C)C` [D[…], (E)-1-(2,6,6-trimethyl-1-cyclohexa-1,3-dienyl)but-2-en-1-one] was tested, and the Inhibition was 0.985.
`C=CCc1ccc(O)c(OC)c1` [EUGENOL NAT., 2-Methoxy-4-(prop-2-en-1-yl)phenol] was tested, and the Inhibition was 0.908.
With `Cc1ccc2c(c1)OC(=O)C2C` (stereo not drawn) [FURAMINTON/TONKALACTONE ™, dimethyl-3,6-benzo-2(3H)-furanone] the Inhibition was 0.669.
Work on `CC1=C(O)C(=O)C(C)O1` (stereo not drawn) [FURANEOL, 4-Hydroxy-2,5-dimethyl-3-furanone] yielded an Inhibition of 0.985.
`CC(C)=CCC/C(C)=C/CO` [GERANIOL 60 B, 2,6-Octadien-1-ol 3,7-dimethyl] was tested, and the Inhibition was 0.910.
`COc1ccccc1O` [GUAIACOL, 2-Methoxyphenol] was tested, and the Inhibition was 0.718.
In the case of `CCC/C=C/C=O` [HEXENAL TRANS-2, trans-2-hexenal], the Inhibition is reported as 0.961.
For `CC/C=C\CCO` [HEXENOL CIS-3, cis-3-hexenol], the Inhibition was 0.888.
`CCC/C=C/CO` [HEXENOL TRANS-2, trans-2-hexenol] was tested, and the Inhibition was 0.912.
`CC/C=C\CCOC(C)=O` [HEXENYL ACETATE CIS-3, cis-3-hexenyl acetate] was tested, and the Inhibition was 0.723.
`CC/C=C\CCOC(=O)CCC` [HEXENYL BUTYRATE CIS-3, cis-3-hexenyl butyrate] showed an Inhibition of 0.999.
Work on `CC/C=C\CCOC(=O)CCCCC` [HEXENYL CAPROATE CIS-3, cis-3-hexenyl hexanoate] yielded an Inhibition of 0.824.
`CC/C=C\CCOC(=O)C(C)C` [HEXENYL I[…]-3, cis-3-hexenyl isobutyrate] gave an Inhibition of 0.865.
Work on `CC/C=C\CCOC(=O)CC(C)C` [HEXENYL I[…]-3, cis-3-hexenyl isovalerate] yielded an Inhibition of 0.724.
In the case of `CC/C=C\CCOC(=O)CC` [HEXENYL […]-3, cis-3-hexenyl propionate], the Inhibition is reported as 0.956.
With `CC/C=C\CCOC(=O)c1ccccc1O` [HEXENYL […]-3, cis-3-hexenyl salicylate] the Inhibition was 0.989.
In the case of `CC/C=C\CCOC(C)OCC` (stereo not drawn) [LEAF ACETAL, cis-1-(1-Ethoxyethoxy)-3-hexene], the Inhibition is reported as 0.964.
In the case of `CCC(=O)/C=C/C1C(C)=CCCC1(C)C` (stereo not drawn) [METHYL IONONE ALPHA/IFF, methyl ionone alpha], the Inhibition is reported as 0.936.
`CC(=O)/C(C)=C/C1C(C)=CCCC1(C)C` (stereo not drawn) [METHYL IONONE GAMMA PURE/IFF, methyl ionone gamma] was tested, and the Inhibition was 0.942.
`CC(C)=CCC/C(C)=C\CO` [NEROL 900, (2Z)-3,7-dimethylocta-2,6-dien-1-ol] was tested, and the Inhibition was 0.758.
Compound `CC/C=C\CC/C=C/CO` [NONADIENOL-2,6, 2,6-nonadien-1-ol] has an Inhibition of 0.885.

What follows are compounds tested on urease (assay: Application in cat litter: ammonia formation from artificial cat urine (headspace sampling)). Settings: litter coated with 0.1% (w/w) active material; artificial cat urine with urea and urease; headspace ammonia over 5 days; negative control = 100.
Procedure: The efficiency of reducing ammonia formation in cat litter was tested with different fragrance raw materials that are shown in the table below (table 3).
In brief, the litter was coated with a final concentration of 0.1% (w/w) of active material respective to the dry litter material. In a glass bottle with a total volume of 5 l, the litter is treated with artificial cat urine that consists of an aqueous salt solution containing urea and urease. The development of ammonia is measured through headspace sampling with an ammonia sensitive detector over a period of 5 days.
`CCC/C=C/C=O` [HEXENAL TRANS-2, trans-2-hexenal] was tested, and the “Relative ammonia formation in %” value was 32%.
In the case of `CC/C=C\CCOC(=O)CCC` [HEXENYL BUTYRATE CIS-3, cis-3-hexenyl butyrate], the “Relative ammonia formation in %” value is reported as 65%.
`CC/C=C\CCOC(=O)c1ccccc1O` [HEXENYL […]-3, cis-3-hexenyl salicylate] was tested, and the “Relative ammonia formation in %” value was 65%.
With `CC/C=C\CCOC(C)OCC` (stereo not drawn) [LEAF ACETAL, cis-1-(1-Ethoxyethoxy)-3-hexene] the “Relative ammonia formation in %” value was 81%.
